test system: MDA-MB-453; assay: normalised viability (% of control), CellTiter-Blue; higher = more viable cells (about 100 = DMSO control); settings: incubation time: 72 h
Protocol: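 DSRT, CellTiter-Blue viability, 72 h incubation. Signal is normalised to DMSO and benzethonium chloride controls. Value is the normalised response at dose 8.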

Row | Compound | normalised viability [%]
1 | CC[C@@]1(O)C(=O)OCc2c1cc1n(c2=O)Cc2cc3ccccc3nc2-1 [Camptothecin] (1500 nM) | 21.5
2 | COC1=CC(c2cc3ccccc3[nH]2)=N/C1=C\c1[nH]c(C)cc1C [Obatoclax] (3000 nM) | 33.4

test system: CAL-85-1; assay: normalised response (% of control), CellTox Green; higher = less cell death (100 = DMSO, 0 = benzethonium chloride kill control); settings: incubation time: 72 h
Procedure, shortened: (§1)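 Values are normalised signals, each belonging to one concentration of the series. Breast cancer cells (20 µl suspension) were seeded into 384-well plates with compound at 5 concentrations in 10-fold steps over a compound-specific 10,000-fold range and incubated 72 h. Readouts were CellTox Green fluorescence (485/520 nm), then CellTiter-Glo luminescence after 10 min at room temperature, with each plate set to 0.1 % DMSO as 100 and a positive kill control as 0.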

Row | Compound | normalised response [%]
3 | Nc1nccc(-c2c(-c3ccc(F)cc3)ncn2C2CCCCC2)n1 (10000 nM) | 71.6
4 | CN(c1ccccc1CNc1nc(Nc2ccc3c(c2)CC(=O)N3)ncc1C(F)(F)F)S(C)(=O)=O (10000 nM) | 11.5

test system: BT-549; assay: as above; settings: incubation time: 72 h
Procedure, shortened: as §1

Row | Compound | normalised response [%]
5 | Nc1nccc(-c2c(-c3ccc(F)cc3)ncn2C2CCCCC2)n1 (10000 nM) | 100
6 | CN(c1ccccc1CNc1nc(Nc2ccc3c(c2)CC(=O)N3)ncc1C(F)(F)F)S(C)(=O)=O (10000 nM) | 52.9

test system: BT-474; assay: as above; settings: incubation time: 72 h
Procedure, shortened: as §1

Row | Compound | normalised response [%]
7 | Nc1nccc(-c2c(-c3ccc(F)cc3)ncn2C2CCCCC2)n1 (10000 nM) | 103
8 | CN(c1ccccc1CNc1nc(Nc2ccc3c(c2)CC(=O)N3)ncc1C(F)(F)F)S(C)(=O)=O (10000 nM) | 84.8

test system: CAL-51; assay: as above; settings: incubation time: 72 h
Procedure, shortened: as §1

Row | Compound | normalised response [%]
9 | Nc1nccc(-c2c(-c3ccc(F)cc3)ncn2C2CCCCC2)n1 (10000 nM) | 105
10 | CN(c1ccccc1CNc1nc(Nc2ccc3c(c2)CC(=O)N3)ncc1C(F)(F)F)S(C)(=O)=O (10000 nM) | 16.1

test system: Hs578T; assay: as above; settings: incubation time: 72 h
Procedure, shortened: as §1

Row | Compound | normalised response [%]
11 | Nc1nccc(-c2c(-c3ccc(F)cc3)ncn2C2CCCCC2)n1 (10000 nM) | 135
12 | CN(c1ccccc1CNc1nc(Nc2ccc3c(c2)CC(=O)N3)ncc1C(F)(F)F)S(C)(=O)=O (10000 nM) | -25.4

test system: MDA-MB-231; assay: as above; settings: incubation time: 72 h
Procedure, shortened: as §1

Row | Compound | normalised response [%]
13 | Nc1nccc(-c2c(-c3ccc(F)cc3)ncn2C2CCCCC2)n1 (10000 nM) | 109
14 | CN(c1ccccc1CNc1nc(Nc2ccc3c(c2)CC(=O)N3)ncc1C(F)(F)F)S(C)(=O)=O (10000 nM) | -15.1

test system: MFM-223; assay: as above; settings: incubation time: 72 h
Procedure, shortened: as §1

Row | Compound | normalised response [%]
15 | Nc1nccc(-c2c(-c3ccc(F)cc3)ncn2C2CCCCC2)n1 (10000 nM) | 96
16 | CN(c1ccccc1CNc1nc(Nc2ccc3c(c2)CC(=O)N3)ncc1C(F)(F)F)S(C)(=O)=O (10000 nM) | 92.2

test system: HDQ-P1; assay: as above; settings: incubation time: 72 h
Procedure, shortened: as §1

Row | Compound | normalised response [%]
17 | Nc1nccc(-c2c(-c3ccc(F)cc3)ncn2C2CCCCC2)n1 (10000 nM) | 95.7
18 | CN(c1ccccc1CNc1nc(Nc2ccc3c(c2)CC(=O)N3)ncc1C(F)(F)F)S(C)(=O)=O (10000 nM) | 68.7

test system: CAL-148; assay: as above; settings: incubation time: 72 h
Procedure, shortened: as §1

Row | Compound | normalised response [%]
19 | Nc1nccc(-c2c(-c3ccc(F)cc3)ncn2C2CCCCC2)n1 (10000 nM) | 99.9
20 | CN(c1ccccc1CNc1nc(Nc2ccc3c(c2)CC(=O)N3)ncc1C(F)(F)F)S(C)(=O)=O (10000 nM) | 58.1

test system: MDA-MB-468; assay: as above; settings: incubation time: 72 h
Procedure, shortened: as §1

Row | Compound | normalised response [%]
21 | Nc1nccc(-c2c(-c3ccc(F)cc3)ncn2C2CCCCC2)n1 (10000 nM) | 114
22 | CN(c1ccccc1CNc1nc(Nc2ccc3c(c2)CC(=O)N3)ncc1C(F)(F)F)S(C)(=O)=O (10000 nM) | 110

test system: MCF-10A; assay: as above; settings: incubation time: 72 h
Procedure, shortened: as §1

Row | Compound | normalised response [%]
23 | Nc1nccc(-c2c(-c3ccc(F)cc3)ncn2C2CCCCC2)n1 (10000 nM) | 11.8
24 | CN(c1ccccc1CNc1nc(Nc2ccc3c(c2)CC(=O)N3)ncc1C(F)(F)F)S(C)(=O)=O (10000 nM) | 7.39

test system: HCC1937; assay: as above; settings: incubation time: 72 h
Procedure, shortened: as §1

Row | Compound | normalised response [%]
25 | Nc1nccc(-c2c(-c3ccc(F)cc3)ncn2C2CCCCC2)n1 (10000 nM) | 69.8
26 | CN(c1ccccc1CNc1nc(Nc2ccc3c(c2)CC(=O)N3)ncc1C(F)(F)F)S(C)(=O)=O (10000 nM) | 51.5

test system: MDA-MB-436; assay: as above; settings: incubation time: 72 h
Procedure, shortened: as §1

Row | Compound | normalised response [%]
27 | Nc1nccc(-c2c(-c3ccc(F)cc3)ncn2C2CCCCC2)n1 (10000 nM) | 92.7
28 | CN(c1ccccc1CNc1nc(Nc2ccc3c(c2)CC(=O)N3)ncc1C(F)(F)F)S(C)(=O)=O (10000 nM) | 92.8

test system: HCC1143; assay: as above; settings: incubation time: 72 h
Procedure, shortened: as §1

Row | Compound | normalised response [%]
29 | Nc1nccc(-c2c(-c3ccc(F)cc3)ncn2C2CCCCC2)n1 (10000 nM) | 110
30 | CN(c1ccccc1CNc1nc(Nc2ccc3c(c2)CC(=O)N3)ncc1C(F)(F)F)S(C)(=O)=O (10000 nM) | 70.8

test system: DU-4475; assay: as above; settings: incubation time: 72 h
Procedure, shortened: as §1

Row | Compound | normalised response [%]
31 | Nc1nccc(-c2c(-c3ccc(F)cc3)ncn2C2CCCCC2)n1 (10000 nM) | 98.6
32 | CN(c1ccccc1CNc1nc(Nc2ccc3c(c2)CC(=O)N3)ncc1C(F)(F)F)S(C)(=O)=O (10000 nM) | 64.2

test system: MDA-MB-453; assay: as above; settings: incubation time: 72 h
Procedure, shortened: as §1

Row | Compound | normalised response [%]
33 | Nc1nccc(-c2c(-c3ccc(F)cc3)ncn2C2CCCCC2)n1 (10000 nM) | 104
34 | CN(c1ccccc1CNc1nc(Nc2ccc3c(c2)CC(=O)N3)ncc1C(F)(F)F)S(C)(=O)=O (10000 nM) | 105

test system: CAL-120; assay: as above; settings: incubation time: 72 h
Procedure, shortened: as §1

Row | Compound | normalised response [%]
35 | Nc1nccc(-c2c(-c3ccc(F)cc3)ncn2C2CCCCC2)n1 (10000 nM) | 105
36 | CN(c1ccccc1CNc1nc(Nc2ccc3c(c2)CC(=O)N3)ncc1C(F)(F)F)S(C)(=O)=O (10000 nM) | 89.1

test system: HCC1599; assay: as above; settings: incubation time: 72 h
Procedure, shortened: as §1

Row | Compound | normalised response [%]
37 | Nc1nccc(-c2c(-c3ccc(F)cc3)ncn2C2CCCCC2)n1 (10000 nM) | 98.1
38 | CN(c1ccccc1CNc1nc(Nc2ccc3c(c2)CC(=O)N3)ncc1C(F)(F)F)S(C)(=O)=O (10000 nM) | 60.9

Reference: the supplement of paper PMC4862054
